Measurements taken from patent US20110250686A1 (CELLARTIS AB, priority 2006, published 2011).

Tested on: hepatocyte-like cells
Conditions: against VitroHES reference protocol

morphology / appearance of hepatocyte-like cells: improved the appearance of the HCLC
SMILES: C[C@@H]1C[C@H]2[C@@H]3CCC4=CC(=O)C=C[C@]4(C)[C@@]3(F)[C@@H](O)C[C@]2(C)[C@@]1(O)C(=O)CO [Dexamethasone]
